Literature values as cited in patent US4833164A (E. I. Du Pont de Nemours and Company, priority 1986, dated 1989).

Tested on: lipoxygenase
Settings: Nakadate et al.; Van Wauwe and Goossens; Panganamala et al.

- lipoxygenase inhibitor (literature): lipoxygenase inhibitor
Compound: Oc1cccc2ccccc12 [Example 1-naphthol, 1-naphthol]
